Where two headings read alike, the source gives them in different places.
Assays:
[1] = Mouse pharmacokinetics after oral gavage, plasma drug concentration by LC-MS/MS (BALB/c); assay type: in vivo; details: mouse, plasma, 10 mg/kg, male mice
Method: Compounds were formulated in 5% DMSO/5% Tween20 in H2O, sonicated, vortexed, and put on stir plate overnight at a dose volume of 10 mL/kg. Balb/C (Jackson laboratories) or C57bl/6 (Taconic Biosciences) mice (8-9 weeks old) were acclimated to the colony for 3 days prior to dosing. Water and food were provided ab libitum. Compounds were administered by oral gavage. Groups of six animals received 3 to 4 bleeds per day with one terminal bleed. The time points were 30 min, 1 h, 2 h, 4 h, 6 h, 8 h, 24 h. Plasma was collected via centrifugation and analyzed for drug concentrations.
Preparation of Study Samples and Standards for Analysis by LC-MS/MS
50 μl of plasma was aliquoted into a 96 well deep-well polypropylene plate (2 mL) to which 5 μL of DMSO was added. For standards, 5 μl of test compound in DMSO at […] the standard concentration was added to 50 μl of blank matrix in a 96 well deep-well polypropylene plate. For example, for a 300 nM standard, the 10× DMSO concentration was 3 μM. Study samples that require dilution are diluted with the appropriate blank matrix. For example, for a 10× dilution, 5 μL of study sample is added to 45 μl of blank matrix. Protein was precipitated from study samples and standards with the addition of 150 μl of acetonitrile. After a clean plate map was placed firmly over the top of the 96-well plate, a bench top shaker was used for 1 min to ensure complete precipitation of protein. The precipitated protein was pelleted by centrifuging for 3,000 rpm for 10 min at 20° C. and then the clear supernatant was transferred to a clean 96-well plate and spun again under the same conditions in order to pellet any solid material that may have been transferred.
Analysis of Study Samples and Standards with LCMS with MRM Detection
An Agilent 1200 HPLC with binary pump and a Leap CTC with fast wash autosampler were used to introduce samples to the mass spectrometer.
The column used was a Phenomenex Luna C8 30×2 mm 5 μm with a security guard. Mass detection was performed by an Applied Biosystems 4000 Qtrap in MRM mode and ionization was achieved by positive electrospray with a source temperature of 500° C. The ion transitions, […] potential and collision energies were dependent on the specific analyte.
Prepared samples were usually analyzed in reverse chronological order with bracketing standard curves. Typically at least 6 standards were used for quantification with a percent accuracy of +/−15% for all standards except at the LLOQ where a percent accuracy of +/−20% was allowed. The concentration time profile was fit using a one compartment model for the applicable mode of dosing using Phoenix WinNonLin 6.4.

[2] = Mouse pharmacokinetics after oral gavage, plasma drug concentration by LC-MS/MS (C57BL/6); assay type: in vivo, C57bl/6 mice; details: male mice; for Cmax / AUC(0-t): mouse, plasma; for AUC(0-t): read-out: AUC0-24
Procedure, shortened: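 BALB/c or C57BL/6 mice (8–9 weeks) dosed by oral gavage in 5% DMSO/5% Tween20 in water at 10 mL/kg. Plasma sampled at 30 min to 24 h, acetonitrile-precipitated, quantified by LC-MS/MS (positive ESI, MRM) against bracketing standard curves. Profiles fit with a one-compartment model.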

CXCR3 = target: T1, CXCR3 (Homo sapiens, UniProt P49682); assay: CXCR3 cAMP agonist assay (cAMP Hunter CHOK1 CXCR3 Gi cell line, forskolin-stimulated, HitHunter cAMP detection); assay type: cell-based; details: cAMP Hunter CHOK1 CXCR3 Gi cells, 20 μM forskolin, 30 minutes; read-out: Activity (CXCR3 cAMP agonist assay compound EC50)
T1 construct: host or cells: CHO-K1 (cAMP Hunter CHOK1 CXCR3 Gi cell line)
T1 sequence (P49682 1-368): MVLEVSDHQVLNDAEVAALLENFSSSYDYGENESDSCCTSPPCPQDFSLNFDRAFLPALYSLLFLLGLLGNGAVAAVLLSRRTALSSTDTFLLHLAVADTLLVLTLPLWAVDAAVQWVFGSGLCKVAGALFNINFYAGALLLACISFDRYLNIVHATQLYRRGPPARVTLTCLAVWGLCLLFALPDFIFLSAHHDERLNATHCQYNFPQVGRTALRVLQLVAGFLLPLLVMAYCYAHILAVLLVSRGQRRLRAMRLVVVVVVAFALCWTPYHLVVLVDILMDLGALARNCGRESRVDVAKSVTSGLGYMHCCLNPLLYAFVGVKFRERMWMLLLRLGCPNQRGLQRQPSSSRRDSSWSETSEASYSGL
Procedure, shortened: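 CHOK1 cells expressing human CXCR3 with Gi coupling, 50,000/well in suspension in HBSS/10 mM HEPES/0.1% BSA pH 7.4, were co-treated with 20 μM forskolin and compound (12-point, 0-10 μM, 1% DMSO) for 30 min. cAMP was read by enzyme-complementation luminescence; CXCL11 dose response set maximum efficacy.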

With `Cc1cc(NC(=O)[C@H](CCN)NC(=O)[C@@H]2Cc3ccccc3CN2C(=O)CCC(=O)c2ccccc2)ccc1Cl` [Compound 2-2] the Cmax [1] was 3.5 µM, the “apparent oral clearance (CL/F)” value ([2]; C57BL/6, 10 mg/kg) was 10.6 L/h/kg and the “apparent oral clearance (CL/F)” value ([2]; C57BL/6, 60 mg/kg) was 16 L/h/kg. The Cmax ([2]; C57BL/6, 10 mg/kg) was 0.9 µM, the AUC(0-t) ([2]; C57BL/6, 10 mg/kg) was 1.7 µM·h and the Cmax ([2]; C57BL/6, 60 mg/kg) was 2.7 µM. It also gave an AUC(0-t) ([2]; C57BL/6, 60 mg/kg) of 6.7 µM·h and an EC50 (CXCR3) of under 0.05 µM.
